One series is described as follows: MTT cell viability assay. Format: cell-based. Conditions: human, mean ± SE, unit inferred. How it is done:
(§1) The cytotoxic activities of the tested dendrimers against the breast cancer cell line MCF-7, embryonic kidney non-cancer cells (HEK-293), and hepatic cellular Hep-G2 were evaluated by MTT assay. A cell suspension was diluted with complete medium to a concentration of 5 × 10^4 cell/ml. By using a micropipette, 100 μL aliquots of the cell suspension were pipetted into all wells of 96-well plate (~5000 cells/well). These plates were incubated at 37 °C for one day to allow cell attachment. Then, cells were treated using 100 µL of growth medium consisting of 0, 0.001, 0.01, 0.1, 1, 10, or 100 μL of the freshly prepared aspirin-based dendrimers in triplicate. After that, cells were rinsed with phosphate-buffered saline (PBS), and an appropriate fresh medium including 20 μL MTT in phosphate-buffered saline (0.5 mg/mL) was added to the test wells. The 96-well plate was then further incubated in a carbon dioxide incubator at 37 °C for another 4 h, and the MTT assay study was done. The MTT assay procedure is based on the reduction of the tetrazolium salt MTT to unsolvable purple formazan via metabolically effective cells, making their activities quantifiable via spectrophotometry. Consequently, the produced formazan crystals were dissolved in 120 μL DMSO solvent for each well. Cell viability was established by measuring the absorbance of each well at 570 nm, and at a reference wavelength of 630 nm using an ELISA plate reader. […] Vinblastine was used as the standard and the corresponding IC50 values were determined by Equation (1):(1) IC50(%)=ControlOD−CompoundOD/ControlODx 100

Series [1] has as its system breast cancer cell lines (MCF-7). Description: MTT cell viability assay. Format: cell-based. Conditions: Homo sapiens, MCF7, mean ± SE, unit inferred, read-out: Cytotoxicity (IC50), MCF-7. The procedure:
as §1

For another series, the system named is Candida albicans. Put plainly: Agar well diffusion antifungal assay.
The next series deals with Aspergillus niger. Description: Agar well diffusion antifungal assay. (Agar diffusion results depend on both activity and mobility in agar.)
Series [2] relates to carrageenan-induced paw edema. Description: Carrageenan-induced rat paw edema assay. Format: in vivo. Particulars: oral. How it is done: The present study was performed on adult albino Wistar rats, weighing 185 ± 200 g. Animals were kept in the animal house at MSA university. They were kept under suitable conditions of humidity and temperature (humidity 60–70%, temperature 24 ± 2 °C). The animals were fed by standard pellet chow (El-Nasr chemical Co., Cairo, Egypt) and were given access to water ad libitum.
Inflammation was induced in all groups by carrageenan (0.2 mL, 1% saline solution), which was injected subcutaneously into the plantar surface of the right hind paw. Group 1 served as a normal group, group 2 received carrageenan only, and groups 3, 4, 5, 6, and 7 received the test drugs orally 1 h before carrageenan (n = 6). Edema was measured in diameter (mm) at 1 h, 2 h, 4 h, and 6 h after carrageenan injection using a digital caliper. Percentage edema inhibition was calculated as [1 − (sample diameter/control diameter)] × 100. All data of the paw edema are represented as mean ± SD.
The strength of the tested dendrimers to inhibit edema (% edema inhibition) was calculated based on the changes in paw thickness (edema diameter, mm) at different periods; 1 h, 2 h, 4 h, and 6 h (Table 4).
(In general: Carrageenan injected into the paw causes an acute inflammation.)

The subject of another series is PGE2. Put plainly: Determination of rat serum PGE2. Format: in vivo. Particulars: 6 h after carrageenan, oral.
The test system of series [3] is gastric mucosa. Put plainly: Evaluation of gastrointestinal toxicity (gastric ulcers). Format: in vivo. Conditions: rat, 400 mg/kg orally, 4 h, mean ± standard deviation. How it is done:
The gastric mucosa was carefully inspected for the occurrence of ulcers with the aid of an illuminated magnifying lens (l0×), the ulcer score was calculated according to published method and ulcer index was determined using the reported formula [60]. Ulcer index = 10/x, where x= total mucosal area/ total ulcerated area. All data are represented as mean ± standard deviation.
Rats were fasted for 24 h and then randomly allocated into the following groups to evaluate the potential toxicity of dendrimers on the stomach:
Group 3 received G1 (400 mg/kg) orally.
Group 4 received G2 (400 mg/kg) orally.
Group 5 received G3 (400 mg/kg) orally.
Group 6 received G4 (400 mg/kg) orally.
Animals were left for 4 h and then sacrificed under light anesthesia for stomach dissection. The gastric mucosa was carefully inspected for the occurrence of ulcers with the aid of an illuminated magnifying lens (l0x), the ulcer score was calculated based on published study and ulcer index was determined using the reported formula [60]. Ulcer index = 10/x, where x= total mucosal area/total ulcerated area.

In series [4] the test system is gastric mucosa. Put plainly: Histopathology examination of stomach. Format: in vivo, rat. The procedure:
The stomach was dissected out, rinsed, and kept in a 10% neutral formalin solution. After fixation, tissues were routinely processed and stained with hematoxylin and eosin for light microscopy. Lesion scores were evaluated in this study according to a published report three parameters were evaluated in relation to their severity; epithelial cell loss was given a score from 0 to 3, hemorrhage was given a score from 0 to 4, and a score from 0 to 2 was given for inflammatory cell infiltration. The total score was given by the summation of the three scores.

The subject of series [5] is Bacillus subtilis (ATCC 6051). Put plainly: Agar well diffusion antimicrobial assay. Conditions: ATCC6051, 24 h, read-out: inhibition zone, B. subtilis.
The subject of series [6] is Staphylococcus aureus (ATCC12600). Put plainly: Agar well diffusion antimicrobial assay. Particulars: ATCC12600, 24 h, read-out: inhibition zone, S. aureus.
The subject of series [7] is Escherichia coli (ATCC 1175). Description: Agar well diffusion antimicrobial assay. Conditions: ATCC1175, 24 h, read-out: inhibition zone, E. coli.
The test system of series [8] is Klebsiella pneumoniae (ATCC10145). Put plainly: Agar well diffusion antimicrobial assay. Conditions: ATCC10145, 24 h, read-out: inhibition zone, K. pneumoniae.
A further series concerns the target T1, COX-2 (Ovis aries, UniProt P79208).
T1 construct: purchased
T1 sequence (P79208 17-603): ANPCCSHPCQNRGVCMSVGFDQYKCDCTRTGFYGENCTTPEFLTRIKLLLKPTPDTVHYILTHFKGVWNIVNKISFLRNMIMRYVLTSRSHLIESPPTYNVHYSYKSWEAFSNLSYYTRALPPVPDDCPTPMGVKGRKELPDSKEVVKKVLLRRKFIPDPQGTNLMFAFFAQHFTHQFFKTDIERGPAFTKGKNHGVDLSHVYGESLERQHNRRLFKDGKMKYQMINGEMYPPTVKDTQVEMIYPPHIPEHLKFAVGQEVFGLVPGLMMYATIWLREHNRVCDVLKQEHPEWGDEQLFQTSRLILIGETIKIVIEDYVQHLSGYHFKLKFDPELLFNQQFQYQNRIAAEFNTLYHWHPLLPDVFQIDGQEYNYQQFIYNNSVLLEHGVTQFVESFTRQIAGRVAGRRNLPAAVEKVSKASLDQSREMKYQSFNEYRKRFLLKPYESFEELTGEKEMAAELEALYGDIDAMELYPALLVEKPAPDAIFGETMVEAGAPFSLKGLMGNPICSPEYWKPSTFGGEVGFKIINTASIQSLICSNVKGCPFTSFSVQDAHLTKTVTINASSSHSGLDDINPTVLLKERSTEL
Put plainly: In vitro COX-2 inhibition assay (ovine COX-1/COX-2 assay kit). Format: biochemical. An excerpt: The selectivity index (SI values) was defined as IC50 COX-1/ IC50 COX-2.
Recent studies on COX-1 and COX-2 inhibitors are focused on increasing the selectivity index of drugs towards […] as it acts as the main effector in the mechanism of pain and inflammation.

Setting [9] is: HEK-293 embryonic kidney non-cancer cells, normal cell line, read-out: Cytotoxicity (IC50), HEK-293.
Where [10] appears, read: Hep-G2 cells, read-out: Cytotoxicity (IC50), Hep-G2.
[11] abbreviates: 15 mg/mL, agar well diffusion, 37 °C 24 h, mean ± SE.
[12] abbreviates: rat stomach, compared to the aspirin group.

In brackets after ≈: the same amount, converted by molar mass. Where two headings read alike, the source gives them in different places.

Description for PGE2: Inflammation was induced in all groups by carrageenan (0.2 mL, 1% saline solution) injected subcutaneously into the plantar surface of the right hind paw. Group 1 served as a normal group, group 2 received carrageenan only, and groups 3, 4, 5, 6, and 7 received the test drugs orally 1 h before carrageenan (n = 6) [58]. Blood samples were collected from all groups and centrifuged for 15 minutes to separate the serum and measure serum PGE2 Pg/mL. Percentage inhibition was calculated as [1 − (sample PGE2 concentration/control PGE2 concentration)] × 100. All data of the PGE2 concentration are represented as mean ± SD.
The ability of the dendrimers to inhibit PGE2 was evaluated by measuring the rat serum concentration of PGE2 in blood samples collected after 6 h from subcutaneous carrageenan injection.

By IC50 is commonly meant the concentration at which inhibition is half-maximal. Turning to `COc1cccc2c1C(=O)c1c(O)c3c(c(O)c1C2=O)C[C@@](O)(C(=O)CO)C[C@@H]3O[C@H]1C[C@H](N)[C@H](O)[C@H](C)O1` [Doxorubicin], the figures for the IC50 (in “MTT cell viability assay” (setting [9]); in “MTT cell viability assay” (setting [10]); in series [1]) were 205.07 ± 0.05 µg/mL (≈ 377 µM), 4.8 ± 0.09 µg/mL (≈ 8.83 µM) and 5.7 ± 0.07 µg/mL (≈ 10.5 µM), respectively.

Regarding `C[C@@H]1[C@H](O)[C@@H](C)/C=C/C=C/CC/C=C/C=C/C=C/C=C/C(O[C@H]2O[C@H](C)[C@@H](O)[C@H](N)[C@@H]2O)CC2O[C@](O)(CC(O)C(O)CCC(O)CC(O)CC(O)CC(=O)O[C@H]1C)CC(O)C2C(=O)O` (some centres unmarked) [Nystatin], in the series on Candida albicans (setting [11]), the “inhibition zone, C. albicans” value was 21 ± 0.11 mm. For the same compound, the “inhibition zone, A. niger” value with Aspergillus niger (setting [11]) is 15 ± 0.08 mm.

For the compound `CC(=O)Oc1ccccc1C(=O)O` [Aspirin, acetylsalicylic acid], the IC50 amounted to 240.18 ± 0.03 µg/mL (≈ 1330 µM) in “MTT cell viability assay” (setting [9]), 192.4 ± 0.04 µg/mL (≈ 1070 µM) in the series “MTT cell viability assay” (setting [10]) and 208.96 ± 0.05 µg/mL (≈ 1160 µM) in series [1]. For the same compound, the “% Inhibition of edema 1 h” value in series [2] (1 h after carrageenan) worked out at 34.82%. In addition, the “% Inhibition of edema 2 h” value in series [2] (2 h after carrageenan) stood at 42.23%. In series [2] (4 h after carrageenan), the “% Inhibition of edema 4 h” value is on record as 35.08%. Moreover, the “% Inhibition of edema 6 h” value in [2] (6 h after carrageenan) came to 47.38%. The “PGE2 Inhibition%” value in the series with PGE2 is 72.40%. The compound also yielded a Gastric Mucosal Lesions, Ulcer Area with gastric mucosa [3] of 86.9 ± 9.51 mm². Moreover, the “Gastric Mucosal Lesions, Ulcer Score” value in the series on gastric mucosa [3] is 5.00 ± 0.00. Also, the Epithelial loss score entry with gastric mucosa [4] (setting [12]) was “significantly higher epithelial loss score”. Also, the Hemorrhage score entry with gastric mucosa [4] (setting [12]) is listed as “highest score of hemorrhage”. The “Histopathological findings of stomach tissue” value in the series with gastric mucosa [4] (rat, 400 mg/kg orally, H&E) is reported as “serious histopathological alterations”. Further, the zone of inhibition at 15000 µg/mL came to 29 ± 0.09 mm in the series on Candida albicans (Candida albicans, 24 h, read-out: inhibition zone, C. albicans); 30 ± 0.1 mm with Aspergillus niger (Aspergillus niger, 24 h, read-out: inhibition zone, A. niger); 23 ± 0.08 mm in [5]; 30 ± 0.07 mm in series [6]; 18 ± 0.06 mm in series [7]; 26 ± 0.11 mm in series [8].

On to `CNC(C)C1CCC(N)C(OC2C(N)CC(N)C(OC3OCC(C)(O)C(NC)C3O)C2O)O1` (centres unmarked) [Gentamicin], for which the zone of inhibition at 15000 µg/mL in [7] was found to be 17 ± 0.04 mm; in [8], 22 ± 0.02 mm.

`CC1(C)S[C@@H]2[C@H](NC(=O)[C@H](N)c3ccccc3)C(=O)N2[C@H]1C(=O)O` [Ampicillin]: the values for the zone of inhibition at 15000 µg/mL in series [5] and in [6] were 25 ± 0.06 mm and 15 ± 0.05 mm, respectively.

In turn, `CS(=O)(=O)c1ccc(C2=C(c3ccccc3)C(=O)OC2)cc1` [Rofecoxib] yielded an IC50 at COX-2 of 25 nM.

The record behind these values is PMC8615929, “Aspirin-Based Organoiron Dendrimers as Promising Anti-Inflammatory, Anticancer, and Antimicrobial Drugs” (Biomolecules, 2021).
